In experiment [1] the target is T1, AKT2 (Homo sapiens, UniProt P31751).
T1 construct: expressed in transfected cells; host or cells: HEK293
As to the kind of experiment: Live cell AKT2 target engagement by NanoBRET competitive probe displacement in HEK293 cells. It is filed as binding. The note with it: 2 h at 37° C., read-out: AKT2 IC50. Background: BRET reads energy transfer from a luciferase to a nearby fluorophore.

Experiment [2] concerns the target T2, AKT1 WT (Homo sapiens, UniProt P31749).
T2 construct: expressed in transfected cells; host or cells: HEK293
As to the kind of experiment: Live cell AKT1 WT target engagement by NanoBRET competitive probe displacement in HEK293 cells. It is filed as binding. The settings on record: 2 h at 37° C., read-out: AKT1 WT IC50.

Setting [3] is: NanoBRET live cell target engagement, HEK293 cells.
[4] abbreviates: NanoBRET competitive probe displacement, live HEK293 cells.

Read-outs that look alike come from different tables or passages of the source. A value given as a limit tells only on which side of the number the result lay.

T2 sequence (P31749 whole entry): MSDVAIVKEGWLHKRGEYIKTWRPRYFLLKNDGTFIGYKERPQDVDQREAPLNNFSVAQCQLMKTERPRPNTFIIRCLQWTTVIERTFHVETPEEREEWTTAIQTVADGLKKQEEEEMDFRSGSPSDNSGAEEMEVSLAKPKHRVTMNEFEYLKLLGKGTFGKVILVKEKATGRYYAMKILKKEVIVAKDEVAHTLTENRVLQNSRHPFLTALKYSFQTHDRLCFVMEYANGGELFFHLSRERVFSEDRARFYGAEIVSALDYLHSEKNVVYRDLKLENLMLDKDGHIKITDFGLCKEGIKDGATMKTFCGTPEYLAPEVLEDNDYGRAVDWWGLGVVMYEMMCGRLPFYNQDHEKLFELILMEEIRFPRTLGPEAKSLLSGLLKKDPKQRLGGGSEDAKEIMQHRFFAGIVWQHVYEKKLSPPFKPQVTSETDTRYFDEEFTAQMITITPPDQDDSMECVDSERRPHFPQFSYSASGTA
T1 sequence (P31751 whole entry): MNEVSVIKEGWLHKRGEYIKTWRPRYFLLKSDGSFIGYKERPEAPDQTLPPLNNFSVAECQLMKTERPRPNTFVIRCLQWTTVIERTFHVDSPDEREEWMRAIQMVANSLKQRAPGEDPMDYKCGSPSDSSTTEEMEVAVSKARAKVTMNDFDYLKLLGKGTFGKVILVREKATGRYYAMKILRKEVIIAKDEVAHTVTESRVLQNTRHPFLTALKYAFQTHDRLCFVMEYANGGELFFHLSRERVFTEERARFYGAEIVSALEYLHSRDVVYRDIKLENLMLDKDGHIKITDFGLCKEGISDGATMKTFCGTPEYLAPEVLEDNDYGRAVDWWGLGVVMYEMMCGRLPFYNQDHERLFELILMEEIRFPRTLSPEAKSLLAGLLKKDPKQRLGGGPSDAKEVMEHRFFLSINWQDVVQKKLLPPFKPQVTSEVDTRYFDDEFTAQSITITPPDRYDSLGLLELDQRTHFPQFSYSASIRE

As to `Nc1ncccc1-c1nc2ccc(-n3cccn3)nc2n1-c1ccc2c(c1)CC[C@@H]2NC(=O)c1cnc(C(F)F)nc1` [Compound 114], the IC50 – broadly, the concentration that inhibits the measured activity by half – was determined as 102 nM in experiment [1] (setting [3]) and 9.15 nM in experiment [2] (setting [3]).
Consider `CN[C@H]1CCc2cc(-n3c(-c4cccnc4N)nc4ccc(-n5cccn5)nc43)ccc21` [Compound 339], for which the IC50 in experiment [1] (setting [3]) worked out at 5170 nM; in experiment [2] (setting [3]), 126 nM.
As for `Nc1ncccc1-c1nc2ccc(-n3cccn3)nc2n1-c1ccc2c(c1)CC[C@@H]2NC1CCN(C(=O)C2COC2)CC1` [Compound 423], the IC50 in experiment [1] (setting [4]) was 2620 nM; in experiment [2] (setting [4]), 188 nM.
As for `CS(=O)(=O)Nc1ccc(C(=O)N[C@H]2CCc3cc(-n4c(-c5cccnc5N)nc5ccc(-n6cccn6)nc54)ccc32)cc1` [Compound 195], the IC50 in experiment [1] (setting [3]) is 48.9 nM; in experiment [2] (setting [3]), 12.4 nM.
Turning to `Nc1ncccc1-c1nc2ccc(-n3cccn3)nc2n1-c1ccc2c(c1)CC[C@@H]2NC(=O)c1ccc2nccn2n1` [Compound 236], the IC50 in experiment [1] (setting [3]) worked out at 158 nM; in experiment [2] (setting [3]), 12.1 nM.
On to `CN(C)C(=O)c1ccn(-c2ccc3nc(-c4cccnc4N)n(-c4ccc5c(c4)CC[C@@H]5NC4CCN(C(=O)C5CC5)CC4)c3n2)n1` [Compound 591], for which the IC50 came out at 962 nM in experiment [1] (setting [4]) and 25.2 nM in experiment [2] (setting [4]).
Regarding `Nc1ncccc1-c1nc2ccc(-n3cccn3)nc2n1-c1ccc2c(c1)CC[C@@H]2NC1CCc2cnccc2C1` (single isomer, unassigned) [Compound 463], the concentration for half-maximal inhibition (IC50) came to 1080 nM in experiment [1] (setting [4]) and 27 nM in experiment [2] (setting [4]).
As for `COc1ncncc1C(=O)N[C@H]1CCc2cc(-n3c(-c4cccnc4N)nc4ccc(-n5cccn5)nc43)ccc21` [Compound 157], the half-inhibitory concentration (IC50) in experiment [1] (setting [3]) turned out to be 521 nM; in experiment [2] (setting [3]), 40.5 nM.
Consider `Nc1ncccc1-c1nc2ccc(-c3ncco3)nc2n1-c1ccc2c(c1)CC[C@@H]2n1ccnn1` [Compound 246], for which the results for the concentration for half-maximal inhibition (IC50) in experiment [1] (setting [3]) and in experiment [2] (setting [3]) were 2370 nM and 65.5 nM, respectively.
Take `Cn1ccc(=O)n1-c1ccn(-c2ccc3nc(-c4cccnc4N)n(-c4ccc5c(c4)CC[C@@H]5NC4CCN(C(=O)C5CC5)CC4)c3n2)n1` [Compound 573]: the half-inhibitory concentration (IC50) in experiment [1] (setting [4]) was determined as 5640 nM; in experiment [2] (setting [4]) it was 318 nM.
In the case of `CC(=O)NCC#Cc1ccc2nc(-c3cccnc3N)n(-c3ccc4c(c3)CC[C@@H]4NC(=O)c3ccc(C)nc3)c2n1` [Compound 327], the figures for the IC50 in experiment [1] (setting [3]) and in experiment [2] (setting [3]) were 6850 nM and 526 nM, respectively.
In the case of `Cc1nc2ncccc2c(=O)n1[C@H]1CCc2cc(-n3c(-c4cccnc4N)nc4ccc(-n5cccn5)nc43)ccc21` [Compound 180], the IC50 in experiment [1] (setting [3]) worked out at 1150 nM; in experiment [2] (setting [3]) it was 91.8 nM.
`Nc1ncccc1-c1nc2ccc(-n3cccn3)nc2n1-c1ccc2c(c1)CC[C@@H]2NC(=O)c1ccc2cccn2c1` [Compound 328]: the IC50 amounted to 181 nM in experiment [1] (setting [3]) and 17.9 nM in experiment [2] (setting [3]).
Turning to `COc1cc2c(cn1)CCC2N[C@H]1CCc2cc(-n3c(-c4cccnc4N)nc4ccc(-n5cccn5)nc43)ccc21` (stereo partly drawn) [Compound 510], the figures for the IC50 in experiment [1] (setting [4]) and in experiment [2] (setting [4]) were 262 nM and 14.6 nM, respectively.
Regarding `Nc1ncccc1-c1nc2ccc(-n3cccn3)nc2n1-c1ccc2c(c1)CC[C@@H]2NC(=O)c1ccnn1C(F)F` [Compound 170], the IC50 in experiment [1] (setting [3]) stood at 1380 nM; in experiment [2] (setting [3]), 69.6 nM.
`Cc1cccnc1C(=O)N[C@H]1CCc2cc(-n3c(-c4cccnc4N)nc4ccc(-n5cccn5)nc43)ccc21` [Compound 184]: the 50% inhibitory concentration (IC50) in experiment [1] (setting [3]) was 4740 nM; in experiment [2] (setting [3]), 114 nM.
`Nc1ncccc1-c1nc2ccc(-n3cccn3)nc2n1-c1ccc2c(c1)CC[C@@H]2NC1CCN(C(=O)C2CC2)C1` (stereo partly drawn) [Compound 462]: the IC50 in experiment [1] (setting [4]) was 2370 nM; in experiment [2] (setting [4]), 225 nM.
Take `CNS(=O)(=O)c1cccc(C(=O)N[C@H]2CCc3cc(-n4c(-c5cccnc5N)nc5ccc(-n6cccn6)nc54)ccc32)c1` [Compound 239]: the IC50 in experiment [1] (setting [3]) worked out at 1090 nM; in experiment [2] (setting [3]), 117 nM.
`Nc1ncccc1-c1nc2ccc(-n3cccn3)nc2n1-c1ccc2c(c1)CC[C@H]2NC1CCN(C(=O)C2CC2)CC1` [Compound 500]: the half-maximal inhibitory concentration (IC50) in experiment [1] (setting [4]) is greater than 10000 nM; in experiment [2] (setting [4]), 81.5 nM.
Turning to `Nc1ncccc1-c1nc2ccc(-n3cccn3)nc2n1-c1ccc2c(c1)CC[C@@H]2NC(=O)c1ccc2[nH]ncc2c1` [Compound 193], the IC50 worked out at 42.3 nM in experiment [1] (setting [3]) and 6.71 nM in experiment [2] (setting [3]).
Take `Nc1ncccc1-c1nc2ccc(-n3cccn3)nc2n1-c1ccc2c(c1)CC[C@@H]2NC(=O)c1cccn2ccnc12` [Compound 161]: the 50% inhibitory concentration (IC50) in experiment [1] (setting [3]) came to 1910 nM; in experiment [2] (setting [3]) it was 94.6 nM.
For the molecule `Cc1coc(-c2ccc3nc(-c4cccnc4N)n(-c4ccc5c(c4)CC[C@@H]5NC(=O)c4nccnc4C)c3n2)n1` [Compound 244], the half-inhibitory concentration (IC50) is greater than 10000 nM in experiment [1] (setting [3]) and 221 nM in experiment [2] (setting [3]).
Taken in the same sequence, the figures for `Cc1nnc(C)n1[C@H]1CCc2cc(-n3c(-c4cccnc4N)nc4ccc(-n5cccn5)nc43)ccc21` [Compound 272, (S)-3-(3-(1-(3,5-dimethyl-4H-1,2,4-triazol-4-yl)-2,3-dihydro-1H-inden-5-yl)-5-(1H-pyrazol-1-yl)-3H-imidazo[4,5-b]pyridin-2-yl)pyridin-2-amine] were 604 nM and 38.6 nM.
On to `Nc1ncccc1-c1nc2ccc(-n3cccn3)nc2n1-c1ccc2c(c1)CC[C@@H]2NC(=O)c1ccccc1F` [Compound 333], for which the IC50 in experiment [1] (setting [3]) was 58.7 nM; in experiment [2] (setting [3]) it was 6.14 nM.
Regarding `Cc1ncccc1C(=O)N[C@H]1CCc2cc(-n3c(-c4cccnc4N)nc4ccc(C5CC5)nc43)ccc21` [Compound 129], the values for the IC50 in experiment [1] (setting [3]) and in experiment [2] (setting [3]) were greater than 10000 nM and 111 nM, respectively.
As to `Nc1ncccc1-c1nc2ccc(-n3cccn3)nc2n1-c1ccc2c(c1)CC[C@@H]2NC(=O)[C@H]1CCO1` [Compound 372], the half-maximal inhibitory concentration (IC50) in experiment [1] (setting [3]) was greater than 10000 nM; in experiment [2] (setting [3]) it was greater than 1000 nM.
Regarding `Nc1ncccc1-c1nc2ccc(-n3ccc(C4CCOCC4)n3)nc2n1-c1ccc2c(c1)CC[C@@H]2NC1CCN(C(=O)C2CC2)CC1` [Compound 487], the results for the IC50 in experiment [1] (setting [4]) and in experiment [2] (setting [4]) were greater than 10000 nM and 42.8 nM, respectively.
With `Nc1ncccc1-c1nc2ccc(-n3cccn3)nc2n1-c1ccc2c(c1)CC[C@@H]2NC(=O)c1ccc(OC(F)(F)F)nc1` [Compound 68], the IC50 was 15.2 nM in experiment [1] (setting [3]) and 5.29 nM in experiment [2] (setting [3]).
The matching figures for `Nc1ncccc1-c1nc2ccc(-n3cccn3)nc2n1-c1ccc2c(c1)CC[C@@H]2NC(=O)c1cnc2ccnn2c1` [Compound 238]: 57.7 nM and 9.1 nM.
Turning to `Nc1ncccc1-c1nc2ccc(-n3cccn3)nc2n1-c1ccc2c(c1)CC[C@@H]2NCc1ccnc(OC(F)(F)F)c1` [Compound 305], the results for the IC50 in experiment [1] (setting [3]) and in experiment [2] (setting [3]) were 1160 nM and 32.1 nM, respectively.
The matching figures for `Cc1ncc(F)cc1C(=O)N[C@H]1CCc2cc(-n3c(-c4cccnc4N)nc4ccc(-n5cccn5)nc43)ccc21` [Compound 159]: 22.1 nM and 4.65 nM.
Consider `Cc1nc(C2CC2)ccc1C(=O)N[C@H]1CCc2cc(-n3c(-c4cccnc4N)nc4ccc(-n5nccn5)nc43)ccc21` [Compound 539], for which the figures for the IC50 in experiment [1] (setting [4]) and in experiment [2] (setting [4]) were 430 nM and 5.11 nM, respectively.
For the molecule `Cc1ncccc1C(=O)N[C@@H]1c2ccc(-n3c(-c4cccnc4N)nc4ccc(-n5cccn5)nc43)cc2CC1F` (stereo partly drawn) [Compound 148], the IC50 in experiment [1] (setting [3]) was found to be 107 nM; in experiment [2] (setting [3]), 16.7 nM.
Consider `Nc1ncccc1-c1nc2ccc(-c3ccn(C(F)F)n3)nc2n1-c1ccc2c(c1)CC[C@@H]2NC1CCN(C(=O)C2CC2)CC1` [Compound 434], for which the values for the IC50 in experiment [1] (setting [4]) and in experiment [2] (setting [4]) were 1300 nM and 57.7 nM, respectively.
Take `Cc1cc(C(=O)N[C@H]2CCc3cc(-n4c(-c5cccnc5N)nc5ccc(-n6cccn6)nc54)ccc32)cnc1C` [Compound 115]: the IC50 turned out to be 31.7 nM in experiment [1] (setting [3]) and 5.16 nM in experiment [2] (setting [3]).
Consider `Nc1ncccc1-c1nc2ccc(-n3ccc(Oc4cccnc4)n3)nc2n1-c1ccc2c(c1)CC[C@@H]2NC1CCN(C(=O)C2CC2)CC1` [Compound 568], for which the figures for the IC50 in experiment [1] (setting [4]) and in experiment [2] (setting [4]) were 458 nM and 8.72 nM, respectively.
On to `Nc1ncccc1-c1nc2ccc(-n3cccn3)nc2n1-c1ccc2c(c1)CC[C@@H]2NC(=O)c1cc(C(F)F)ns1` [Compound 452], for which the IC50 in experiment [1] (setting [4]) is 131 nM; in experiment [2] (setting [4]), 6.63 nM.
As for `Cn1ccc(N2CCC(N[C@H]3CCc4cc(-n5c(-c6cccnc6N)nc6ccc(-n7ccc(N8CCC8)n7)nc65)ccc43)CC2)n1` [Compound 596], the results for the IC50 in experiment [1] (setting [4]) and in experiment [2] (setting [4]) were 689 nM and 12.9 nM, respectively.
In the case of `Cc1nccnc1C(=O)N[C@H]1CCc2cc(-n3c(-c4cccnc4N)nc4ccc(-c5ccn(C(F)F)n5)nc43)ccc21` [Compound 301], the IC50 came to 2050 nM in experiment [1] (setting [3]) and 189 nM in experiment [2] (setting [3]).
Regarding `N#Cc1cc(-n2nccn2)nc2c1nc(-c1cccnc1N)n2-c1ccc2c(c1)CC[C@@H]2NC(=O)c1ccc(C(F)F)nc1` [Compound 548], the half-maximal inhibitory concentration (IC50) amounted to 4080 nM in experiment [1] (setting [4]) and 27.4 nM in experiment [2] (setting [4]).
As to `Nc1ncccc1-c1nc2ccc(-n3cccn3)nc2n1-c1ccc2c(c1)CC[C@@H]2NC(=O)c1cnc2cccn2c1` [Compound 291], the half-maximal inhibitory concentration (IC50) in experiment [1] (setting [3]) amounted to 56.5 nM; in experiment [2] (setting [3]), 5.14 nM.
With `COc1ccn(-c2ccc3nc(-c4cccnc4N)n(-c4ccc5c(c4)CC[C@@H]5NC4CCN(C(=O)C5CC5)CC4F)c3n2)n1` (stereo partly drawn) [Compound 512], the IC50 came to 409 nM in experiment [1] (setting [4]) and 19.7 nM in experiment [2] (setting [4]).
Turning to `Nc1ncccc1-c1nc2ccc(-n3cccn3)nc2n1-c1ccc2c(c1)CC[C@@H]2n1cc(C2CCO2)nn1` (stereo partly drawn) [Compound 353], the values for the IC50 in experiment [1] (setting [3]) and in experiment [2] (setting [3]) were 1270 nM and 25 nM, respectively.
In the case of `Nc1ncccc1-c1nc2ccc(-n3cccn3)nc2n1-c1ccc2c(c1)CC[C@@H]2NC(=O)c1cc(C2CC2)c(O)c(C(F)(F)F)c1` [Compound 415], the results for the half-maximal inhibitory concentration (IC50) in experiment [1] (setting [4]) and in experiment [2] (setting [4]) were 70 nM and 2.96 nM, respectively.
Regarding `Nc1ncccc1-c1nc2ccc(-n3cccn3)nc2n1-c1ccc2c(c1)CC[C@@H]2NC(=O)c1ccc2[nH]c(=O)oc2c1` [Compound 191], the half-inhibitory concentration (IC50) came to 78.6 nM in experiment [1] (setting [3]) and 9.23 nM in experiment [2] (setting [3]).

The values are drawn from patent publication US12624034B2, “Non-covalent modifiers of AKT1 and uses thereof” (Terremoto Biosciences, Inc., priority 2023, dated 2026).
